From PubChem BioAssay (NCI)
“And” between values parts separate entries of the source, which are not always exact repeats. Identical values can stand only once.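 Tested at 5 concentrations; 48 h exposure; 96-well plates; endpoints linearly interpolated, else capped at highest concentration. GI50 = concentration required for 50% inhibition of growth. TGI denotes the concentration required for complete inhibition of growth.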

Tested on: MDA-MB-468 breast
Assay: growth of human tumour cells (NCI), 48 h

Structure (SMILES) | GI50 | TGI
CCC[CH2][Sn]([CH2]CCC)([CH2]CCC)[O]C(=O)c1ccc(Cl)cc1Cl | 0.133 µM | 0.274 µM
COc1cc2c(cc1OCCCCCOc1ccc(-n3c(C)nc4ccccc4c3=O)cc1)N=C[C@@H]1CCCN1C2=O | 0.168 µM | 0.462 µM
CC(=C(c1ccc(OCCN2CCCC2)cc1)c1ccc(OCCN2CCCC2)cc1)c1ccc(Cl)cc1 | 2.37 µM | 5.01 µM
N#CC1=C(N)Oc2c(sc3c(Br)cccc23)C1c1ccc(Br)cc1 (stereo not drawn) | 0.763 µM | 11.4 µM
Nc1nc2n[nH]nc2c(=O)[nH]1 | 0.0817 µM | 0.792 µM
O=C(c1ccccc1)C(Br)C(Br)c1cccc([N+](=O)[O-])c1 (stereo not drawn) | 1.47 µM | 3.08 µM
C=C(C)[C@@H]1CC[C@]2(C)[C@H](CC=C3[C@@H]4[C@@H](C)[C@H](C)CC[C@]4(C(N)=O)CC[C@]32C)[C@@]1(C)CCC#N | 3.15 µM | 12.8 µM
COc1cc(NC(=O)CSc2nc3ccc(C)cc3c(=O)n2Cc2ccccc2)cc(OC)c1OC | 4.11 µM | 68.1 µM
CC1(O)CC(c2nc(-c3ccc4ccc(-c5ccccc5)nc4c3)c3c(N)nccn23)C1 (stereo not drawn) | 3.02 µM and 2.9 µM | 12.8 µM and > 10 µM
Cc1cc(NCc2cc(Nc3ccnc4cc(Cl)ccc34)ccc2F)nc(N2CCN(C)CC2)n1 | 1.7 µM | 3.52 µM
COc1ccc(S(=O)(=O)Nc2cc(/C=C\c3cc(OC)c(OC)c(OC)c3)ccc2OC)cc1 | 0.168 µM | > 100 µM
O=C1C=CC[C@H](/C=C/c2ccccc2)O1 | 1.94 µM | 11.5 µM
OC(CNCC1CCCO1)Cn1c2ccc(Cl)cc2c2cc(Cl)ccc21 (stereo not drawn) | 1.65 µM | 3.2 µM
CC(=O)c1cccc(Nc2nc3ccc(Cl)cc3c3[nH]c4ccccc4c23)c1 | 2.84 µM | 96.8 µM
CCN1Cc2c(ccc(F)c2C#N)O[C@@H](C)CNC(=O)c2c(N)nn3ccc1nc23 | 12.5 µM | 34.3 µM
C=C1C(=O)O[C@H]2[C@H]1CCC(/C=N/c1ncc(Br)cc1N)=C\CC[C@@]1(C)O[C@@H]21 | 1.2 µM | 3.91 µM
COc1ccc(/C=C(\C#N)n2nnc3ccccc32)cc1 | 0.272 µM | 4.1 µM
COc1ccccc1N1CCN(CCc2c[nH]c3cc4c(cc23)OCO4)CC1 | 15.8 µM | 44.5 µM
CC(C)COCC(CN(Cc1ccccc1)c1ccccc1)N1CCCC1 (stereo not drawn) | 1.82 µM | 6.56 µM
